Source: US9808954B2, “Composition of a timber formulation comprising Cu salts and organic cyclic ingredients for the preservation of timber for decks” (Rutgers Organics GmbH, priority 2014, dated 2017)

Key:
[1] = system: poria placenta; assay: EN113 test after EN84 washing, pine timber, poria placenta; format: cell-based
Procedure: (§1) Timber pieces were positioned in a treating vessel. Over a period of 30 minutes a pressure of 0.1 bar was applied. The treating solution containing a Product was sucked into the vessel. Then the pressure in the vessel was increased to 10 bar at 25° C. for 90 minutes. Afterwards the pressure was set to ambient pressure and the remainder of the treating solution was removed. The impregnated timber pieces were dried at ambient temperature.
(§2) In both tables 13 and 14 the standard applied is EN113. Prior to EN113, the timber was washed according to EN84. The type of timber used was pine.
(§3) Tables 13 and 14 show the average retention of the active ingredient (AI) in Product C when it is exposed to both “poria placenta” (table 13) and “coniophora puteana” (table 14). Comparisons are also made with retention values of DPAB and the azol (triadimefon) in the timber. Average AI retention values are required in order to pass the EN113 Standard.
(§4) In both tables 15 and 16 the standard applied is EN113. Prior to EN113, the timber was washed according to EN84. The type of timber used was pine.
(§5) As for product C, tables 15 and 16 show the average retention of the active ingredient (AI) in Product D when it is exposed to both “poria placenta” (table 15) and “coniophora puteana” (table 16). Comparisons are also made with retention values of DPAB and the azol (cyproconazol) in the timber. […]

[2] = system: coniophora puteana; assay: EN113 test after EN84 washing, pine timber, coniophora puteana; format: cell-based
Procedure: as §1, §2, §3, §4, §5

## di-decyl-poly-oxethyl-ammoninum borate [DPAB TGAI]
[1]; poria placenta (Table 13)
  Average DPAB retention in timber: 4.50 kg/m^3
[1]; poria placenta (Table 15)
  Average DPAB retention in timber: 4.50 kg/m^3
[2]; coniophora puteana (Table 14)
  Average DPAB retention in timber: 7.40 kg/m^3
[2]; coniophora puteana (Table 16)
  Average DPAB retention in timber: 7.40 kg/m^3
